Data set [1] can be described thus: Metabolic stability in human hepatic microsome. The note with it: microsomes. In kind it is in vitro ADME.
Data set [2] in a line: PAMPA (parallel artificial membrane permeability assay). The class given is in vitro ADME. The note with it: for Papp at 18 hours, 50 µM: PAMPA. Put shortly:
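Artificial membrane was 10% (w/v) egg lecithin plus 0.5% (w/v) cholesterol in dodecane on a PVDF filter. A 10 mM DMSO stock was added at 0.5% (v/v) to donor buffer (50 mM MOPSO, pH 6.5, 5.0% glycocholic acid). After 18 h at 37 °C, LC/MS or LC/UV gave donor and acceptor levels for Pe.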
In general terms: PAMPA measures passive passage across an artificial lipid membrane.

The mark [3] stands for this setting: pH 7.4, human hepatic microsome, NADPH(+), read-out: CL NADPH(+).
The mark [4] stands for this setting: membrane permeation rate (Pe), 50 mM MOPSO buffer pH 6.5 with 5.0% glycocholic acid, 37° C., 18 hours, read-out: iPAMPA Pe.

The record followed here is patent US9409952B2, “Peptide-compound cyclization method” (Chugai Seiyaku Kabushiki Kaisha, priority 2011, dated 2016).

Read-outs that look alike come from different tables or passages of the source. Positions of bridges follow the written chain, without caps; N, C: chain ends. Non-standard residues stand in square brackets, D forms with d. Residues, ends and D or L forms follow the SMILES beside them. *: point of attachment. Tyr(3-F) = N[C@@H](Cc1ccc(O)c(F)c1)C(=O)O; Arg(Me2s) = CN=C(NC)NCCC[C@H](N)C(=O)O; Met(O2) = CS(=O)(=O)CC[C@H](N)C(=O)O; NMeF = CN[C@@H](Cc1ccccc1)C(=O)O; 3Pal = N[C@@H](Cc1cccnc1)C(=O)O; NMeL = CN[C@@H](CC(C)C)C(=O)O; NMeA = CN[C@@H](C)C(=O)O; Piperidide = C1CCN(*)CC1; Sar = CNCC(=O)O

In the case of `CC(C)C[C@H]1C(=O)N[C@@H](C(C)C)C(=O)N(C)[C@@H](CC(C)C)C(=O)N(C)[C@@H](CC(C)C)C(=O)N[C@H](C(=O)N(C)[C@@H](Cc2ccccc2)C(=O)N[C@@H](C)C(=O)N2CCCCC2)CC(=O)N[C@H](C(C)C)C(=O)N(C)[C@@H](CC(C)C)C(=O)N(C)[C@@H](Cc2ccccc2)C(=O)N(C)[C@@H](CC(C)C)C(=O)N[C@@H](Cc2c[nH]cn2)C(=O)N1C` [DP-586] ([dV][NMeL][NMeF][NMeL]H[NMeL]V[NMeL][NMeL]D[NMeF]A-Piperidide; lactam N-10), the microsomal CLint at 1 uM in data set [1] (setting [3]) came to 15 µL/min/mg. Further, in data set [2] (setting [4]), the Papp at 18 hours, 50 µM was determined as 0.44 ×10⁻⁶ cm/s.

As for `CC(C)C[C@H]1C(=O)N(C)[C@@H](CC(C)C)C(=O)N[C@H](C(=O)N(C)[C@@H](Cc2ccccc2)C(=O)N[C@@H](C)C(=O)N2CCCCC2)CC(=O)N[C@H](C(C)C)C(=O)N(C)[C@@H](C)C(=O)N(C)[C@@H](Cc2ccccc2)C(=O)N(C)[C@@H](CC(C)C)C(=O)N[C@@H](Cc2cccnc2)C(=O)N(C)CC(=O)N[C@@H](C)C(=O)N1C` [DP-591] ([dV][NMeA][NMeF][NMeL][3Pal][Sar]A[NMeL][NMeL]D[NMeF]A-Piperidide; lactam N-10), in data set [1] (setting [3]), the microsomal CLint at 1 uM was 15 µL/min/mg. For the same compound, the Papp at 18 hours, 50 µM in data set [2] (setting [4]) came out at 26 ×10⁻⁶ cm/s.

Consider `CC(C)C[C@@H]1NC(=O)[C@H](Cc2c[nH]cn2)NC(=O)[C@H](Cc2ccccc2)N(C)C(=O)[C@H](CC(C)C)NC(=O)[C@H](CC(C)C)N(C)C(=O)[C@H](Cc2ccccc2)NC(=O)[C@H](CC(C)C)N(C)C(=O)[C@H](CC(C)C)N(C)C(=O)[C@H](Cc2ccccc2)NC(=O)CN(C)C(=O)C[C@@H](C(=O)N(C)[C@@H](Cc2ccccc2)C(=O)N[C@@H](C)C(=O)N2CCCCC2)NC1=O` [DP-592] ([Sar]F[NMeL][NMeL]F[NMeL]L[NMeF]HLD[NMeF]A-Piperidide; lactam N-11), for which the microsomal CLint at 1 uM in data set [1] (setting [3]) was 5 µL/min/mg. Besides, in data set [2] (setting [4]), the Papp at 18 hours, 50 µM was determined as 0.18 ×10⁻⁶ cm/s.

`CC(C)C[C@@H]1NC(=O)[C@H](CCC(=O)O)NC(=O)[C@@H]2CCCN2C(=O)[C@H](CC(C)C)NC(=O)[C@H](CC(C)C)N(C)C(=O)[C@H](Cc2ccccc2)NC(=O)[C@H](C)N(C)C(=O)[C@H](CC(C)C)N(C)C(=O)[C@H](Cc2ccccc2)NC(=O)CN(C)C(=O)C[C@@H](C(=O)N(C)[C@@H](Cc2ccccc2)C(=O)N[C@@H](C)C(=O)N2CCCCC2)NC1=O` [DP-595] ([Sar]F[NMeL][NMeA]F[NMeL]LPELD[NMeF]A-Piperidide; lactam N-11) yielded a microsomal CLint at 1 uM in data set [1] (human, pH 7.4, CL NADPH(+)) of 9 µL/min/mg. Moreover, the Papp at 18 hours, 50 µM in data set [2] (pH 6.5) was found to be 4.9 ×10⁻⁶ cm/s.

`C/N=C(\NC)NCCC[C@@H]1NC(=O)[C@@H]2CCCN2C(=O)[C@H](CC(C)C)NC(=O)[C@H](CC(C)C)N(C)C(=O)[C@H](Cc2ccccc2)NC(=O)CN(C)C(=O)[C@H](CC(C)C)N(C)C(=O)[C@H](Cc2ccccc2)NC(=O)CN(C)C(=O)C[C@@H](C(=O)N(C)[C@@H](Cc2ccccc2)C(=O)N[C@@H](C)C(=O)N2CCCCC2)NC(=O)[C@H](CC(C)C)NC1=O` [DP-597] ([Sar]F[NMeL][Sar]F[NMeL]LP[Arg(Me2s)]LD[NMeF]A-Piperidide; lactam N-11) showed a microsomal CLint at 1 uM in data set [1] (human, pH 7.4, CL NADPH(+)) of 12 µL/min/mg. Also, the Papp at 18 hours, 50 µM in data set [2] (pH 6.5) was found to be 1.7 ×10⁻⁶ cm/s.

In data set [1] (human, pH 7.4, CL NADPH(+)), `CC(C)C[C@@H]1NC(=O)[C@H](Cc2cccnc2)NC(=O)[C@@H]2CCCN2C(=O)[C@H](C)NC(=O)[C@H](CC(C)C)N(C)C(=O)[C@H](Cc2ccccc2)NC(=O)[C@H](C)N(C)C(=O)[C@H](CC(C)C)N(C)C(=O)[C@H](Cc2ccccc2)NC(=O)[C@H](C)N(C)C(=O)C[C@@H](C(=O)N(C)[C@@H](Cc2ccccc2)C(=O)N[C@@H](C)C(=O)N2CCCCC2)NC1=O` [DP-599] ([NMeA]F[NMeL][NMeA]F[NMeL]AP[3Pal]LD[NMeF]A-Piperidide; lactam N-11) yielded a microsomal CLint at 1 uM of 84 µL/min/mg. The same compound came in with a Papp at 18 hours, 50 µM in data set [2] (pH 6.5) of 28 ×10⁻⁶ cm/s.

Turning to `CC(C)C[C@@H]1NC(=O)[C@H](Cc2cccnc2)NC(=O)[C@H](Cc2ccccc2)N(C)C(=O)[C@H](CC(C)C)NC(=O)[C@H](CC(C)C)N(C)C(=O)[C@H](Cc2ccccc2)NC(=O)[C@H](CC(C)C)N(C)C(=O)[C@H](CC(C)C)N(C)C(=O)[C@H](Cc2ccccc2)NC(=O)CN(C)C(=O)C[C@@H](C(=O)N(C)[C@@H](Cc2ccccc2)C(=O)N[C@@H](C)C(=O)N2CCCCC2)NC1=O` [DP-600] ([Sar]F[NMeL][NMeL]F[NMeL]L[NMeF][3Pal]LD[NMeF]A-Piperidide; lactam N-11), the microsomal CLint at 1 uM in data set [1] (setting [3]) was found to be 12 µL/min/mg. Moreover, the “iPAMPA Pe” value in data set [2] (membrane permeation rate (Pe), 50 mM MOPSO buffer pH 6.5 with 5.0% glycocholic acid, 37° C., 18 hours) was 1.0E−07.

With `CC(C)C[C@@H]1NC(=O)[C@H](CC(C)C)N(C)C(=O)[C@H](CC(C)C)N(C)C(=O)[C@H](CC(C)C)NC(=O)[C@H](Cc2ccccc2)N(C)C(=O)[C@H](CCS(C)(=O)=O)NC(=O)[C@H](CC(C)C)N(C)C(=O)[C@H](Cc2ccccc2)NC(=O)[C@H](C)NC(=O)C[C@@H](C(=O)N(C)[C@@H](Cc2ccccc2)C(=O)N[C@@H](C)C(=O)N2CCCCC2)NC1=O` [DP-607] (AF[NMeL][Met(O2)][NMeF]L[NMeL][NMeL]LD[NMeF]A-Piperidide; lactam N-10), the microsomal CLint at 1 uM in data set [1] (setting [3]) was 2 µL/min/mg. Also, in data set [2] (setting [4]), the Papp at 18 hours, 50 µM came out at 1.2 ×10⁻⁶ cm/s.

On to `CC(C)C[C@@H]1NC(=O)[C@H](CC(C)C)N(C)C(=O)[C@H](C)N(C)C(=O)[C@@H](C(C)C)NC(=O)C[C@@H](C(=O)N2CCCCC2)NC(=O)[C@H](CCC(N)=O)NC(=O)[C@H](CC(C)C)N(C)C(=O)CN(C)C(=O)[C@H](CC(C)C)N(C)C(=O)[C@H](Cc2ccccc2)NC(=O)[C@H](Cc2ccccc2)N(C)C1=O` [DP-617] ([dV][NMeA][NMeL]L[NMeF]F[NMeL][Sar][NMeL]QD-Piperidide; lactam N-11), for which the microsomal CLint at 1 uM in data set [1] (setting [3]) was determined as 30 µL/min/mg. Moreover, the Papp at 18 hours, 50 µM in data set [2] (setting [4]) was 29 ×10⁻⁶ cm/s.

As for `CC(C)C[C@@H]1NC(=O)[C@H](CC(C)C)N(C)C(=O)[C@H](C)N(C)C(=O)[C@@H](C(C)C)NC(=O)C[C@@H](C(=O)N2CCCCC2)NC(=O)[C@H](CCC(=O)N(C)C)NC(=O)[C@H](CC(C)C)N(C)C(=O)[C@H](C)N(C)C(=O)[C@H](CC(C)C)N(C)C(=O)[C@H](Cc2ccccc2)NC(=O)[C@H](Cc2ccccc2)N(C)C1=O` [DP-618] ([dV][NMeA][NMeL]L[NMeF]F[NMeL][NMeA][NMeL]E(NMe2)D-Piperidide; lactam N-11), the microsomal CLint at 1 uM in data set [1] (setting [3]) was found to be 39 µL/min/mg. The Papp at 18 hours, 50 µM in data set [2] (setting [4]) came to 28 ×10⁻⁶ cm/s.

Take `CC(C)C[C@@H]1NC(=O)[C@H](CC(C)C)N(C)C(=O)[C@H](C)N(C)C(=O)[C@@H](C(C)C)NC(=O)C[C@@H](C(=O)N2CCCCC2)NC(=O)[C@H]([C@@H](C)O)NC(=O)[C@H](C)N(C)C(=O)[C@H](C)N(C)C(=O)[C@H](CC(C)C)N(C)C(=O)[C@H](Cc2ccc(O)c(F)c2)NC(=O)[C@H](Cc2ccccc2)N(C)C1=O` [DP-619] ([dV][NMeA][NMeL]L[NMeF][Tyr(3-F)][NMeL][NMeA][NMeA]TD-Piperidide; lactam N-11): the microsomal CLint at 1 uM in data set [1] (setting [3]) is 29 µL/min/mg. The Papp at 18 hours, 50 µM in data set [2] (setting [4]) stood at 12 ×10⁻⁶ cm/s.

In the case of `CC(C)C[C@@H]1NC(=O)[C@H](CC(C)C)N(C)C(=O)[C@H](C)N(C)C(=O)[C@@H](C(C)C)NC(=O)C[C@@H](C(=O)N2CCCCC2)NC(=O)[C@H](CCS(C)(=O)=O)NC(=O)[C@H](CC(C)C)N(C)C(=O)[C@H](C)N(C)C(=O)[C@H](CC(C)C)N(C)C(=O)[C@H](Cc2ccccc2)NC(=O)[C@H](Cc2ccccc2)N(C)C1=O` [DP-620] ([dV][NMeA][NMeL]L[NMeF]F[NMeL][NMeA][NMeL][Met(O2)]D-Piperidide; lactam N-11), the microsomal CLint at 1 uM in data set [1] (setting [3]) amounted to 26 µL/min/mg. Moreover, the Papp at 18 hours, 50 µM in data set [2] (setting [4]) came out at 24 ×10⁻⁶ cm/s.
